Measured values taken from ChEMBL document CHEMBL1201862, “PubChem BioAssay data set” (2004).
The source made the active and inactive calls.

Key:
[1] = reduction of Shn3 3'UTR-driven luciferase in osteoblasts – cell-based, Clone20 osteoblasts, firefly luciferase, cherry-picked, dose response (AID 624132); assay type: functional;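 also: firefly luciferase luminescence from reporter carrying the Shn3 3'UTR in osteoblasts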
[2] = loss of viability in HepG2 cells – cell-based, CellTiter-Glo, cherry-picked, cytotoxicity control for Shn3 inhibitor project, dose response (AID 624134); assay type: functional
[3] = non-specific 3'UTR reporter inhibition in Clone20-Shn3RL – cell-based, Renilla luciferase, cherry-picked, counter-screen for Shn3 inhibitor project, dose response (AID 624133); assay type: functional
Beta-galactosidase [4] = target: T1, Beta-galactosidase (Escherichia coli, UniProt Q8VNN2); assay: Dose response counterscreen for EBI2 assay utilizing the enzyme, b-galactosidase.; assay type: functional
[5] = blockers of HIV-1 envelope-mediated cell-cell fusion – cherry-pick, dose response (AID 652057); assay type: functional, cell-based
[6] = blockers of HIV-1 ZM109 envelope-driven cell-cell fusion – HeLa effector, CEM target cells, luciferase, cherry-pick, dose response (AID 652058); assay type: functional, cell-based;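 also: luciferase signal from HIV-1 Env mediated cell-cell fusion of effector and target cells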
[7] = off-target signal loss in HeLa-CEM21 co-culture – HeLa F-luc CTL cells, cherry-picked, counter-screen for HIV-1 Env fusion inhibitor project, dose response (AID 652040); assay type: functional, cell-based;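 also: potency for signal decrease marking cytotoxic or nonspecific inhibition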
[8] = HIV-1 AD8 envelope cell-cell fusion blockers – cherry-pick, dose response (AID 652062); assay type: functional, cell-based;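 also: luciferase signal from cell-cell fusion driven by HIV-1 clade B AD8 Env; potency is for inhibitors of fusion seen as a drop in luminescence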
Melanocortin receptor 4 = Melanocortin receptor 4 (Homo sapiens, UniProt P32245); assay: inhibitors of MC4R cAMP signaling – cell-based, TR-FRET, biased antagonists, dose response (AID 602298); assay type: functional;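 also: antagonist potency against agonist-stimulated cAMP production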
[9] = cAMP pathway inhibition in counterscreen cell line – TR-FRET cAMP detection, counter-screen for MC4R biased antagonist project, dose response (AID 602305); assay type: functional, cell-based;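 also: U2OS cells stimulated with forskolin near its EC80 as the cAMP inducer; potency is for inhibition of forskolin-stimulated cAMP signaling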
Coagulation factor XII = target: T2, Coagulation factor XII (Homo sapiens, UniProt P00748); assay type: functional;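 also: activated factor XIIa alpha cleaving a fluorogenic AMC peptide substrate; inhibitor potency from loss of enzyme activity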
T2 sequence (P00748 whole entry): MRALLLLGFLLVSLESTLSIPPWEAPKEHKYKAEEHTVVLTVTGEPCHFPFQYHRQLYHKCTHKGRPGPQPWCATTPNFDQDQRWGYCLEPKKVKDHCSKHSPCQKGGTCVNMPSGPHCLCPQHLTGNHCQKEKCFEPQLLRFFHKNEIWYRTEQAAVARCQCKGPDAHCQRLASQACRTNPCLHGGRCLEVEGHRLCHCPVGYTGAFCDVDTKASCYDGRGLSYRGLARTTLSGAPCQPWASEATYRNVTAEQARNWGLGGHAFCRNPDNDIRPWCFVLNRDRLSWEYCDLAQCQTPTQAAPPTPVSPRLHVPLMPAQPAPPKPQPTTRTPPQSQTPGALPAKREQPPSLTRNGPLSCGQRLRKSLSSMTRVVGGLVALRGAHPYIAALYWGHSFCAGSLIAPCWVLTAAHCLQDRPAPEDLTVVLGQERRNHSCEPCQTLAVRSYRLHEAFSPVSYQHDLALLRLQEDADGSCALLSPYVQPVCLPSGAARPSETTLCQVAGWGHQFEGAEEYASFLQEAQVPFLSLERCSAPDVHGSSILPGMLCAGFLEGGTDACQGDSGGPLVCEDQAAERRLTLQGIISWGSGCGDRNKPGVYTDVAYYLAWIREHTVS

Vero [10] = assay: cells; assay type: functional, cell-based; conditions: Chlorocebus sabaeus
[11] = NIH-3T3 fibroblast cytotoxicity, dose response, cytotoxicity control, cell-based, fluorescence, Alamar Blue, secondary assay (AID 2327); assay type: functional;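 also: NIH-3T3 mouse fibroblasts cultured with fluconazole at 8 µg/mL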
Beta-galactosidase [12] = target: T1, Beta-galactosidase; assay: PubChem AID 485352; assay type: functional
[13] = fluconazole-exposed Candida albicans growth modulators – fluorescence, retest, confirmation (AID 2467); assay type: functional, cell-based
[14] = target: T3, Type-1 angiotensin II receptor (Homo sapiens, UniProt P30556); assay: antagonism of angiotensin II type 1 receptor – cell-based, uHTS hits, selectivity assay for APJ receptor antagonist project, dose response (AID 463214); assay type: functional;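 also: antagonist potency against angiotensin II stimulated AT1 response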
T3 sequence (P30556 whole entry): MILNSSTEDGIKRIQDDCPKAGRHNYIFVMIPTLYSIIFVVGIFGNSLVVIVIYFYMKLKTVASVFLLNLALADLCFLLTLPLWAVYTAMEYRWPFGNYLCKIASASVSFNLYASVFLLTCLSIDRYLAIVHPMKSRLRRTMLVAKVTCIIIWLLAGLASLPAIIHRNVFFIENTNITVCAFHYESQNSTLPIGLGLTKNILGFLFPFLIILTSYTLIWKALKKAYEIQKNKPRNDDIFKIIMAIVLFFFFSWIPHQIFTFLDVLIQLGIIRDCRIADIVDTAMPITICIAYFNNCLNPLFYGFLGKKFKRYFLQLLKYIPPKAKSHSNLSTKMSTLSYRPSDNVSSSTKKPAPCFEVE

[15] = target: T4, Polyadenylate-binding protein 1 (Homo sapiens, UniProt P11940); assay: MLLE binding blockers, Cy5 peptide tracer – biochemical, fluorescence polarization, Cy5-PAM2 peptide, secondary, miRNA deadenylation inhibitor project, dose response (AID 602260); assay type: functional; conditions: read-out: IC50_Mean
[16] = target: T4, Polyadenylate-binding protein 1; assay: MLLE domain peptide-binding blockers, IC50 – biochemical, fluorescence polarization, FITC-PAM2 peptide, dose response (AID 602259); assay type: functional; conditions: read-out: IC50_Mean
Vero [17] = assay: cells; assay type: functional; conditions: Chlorocebus sabaeus

T1 sequence (Q8VNN2 whole entry, the tested form may be a part): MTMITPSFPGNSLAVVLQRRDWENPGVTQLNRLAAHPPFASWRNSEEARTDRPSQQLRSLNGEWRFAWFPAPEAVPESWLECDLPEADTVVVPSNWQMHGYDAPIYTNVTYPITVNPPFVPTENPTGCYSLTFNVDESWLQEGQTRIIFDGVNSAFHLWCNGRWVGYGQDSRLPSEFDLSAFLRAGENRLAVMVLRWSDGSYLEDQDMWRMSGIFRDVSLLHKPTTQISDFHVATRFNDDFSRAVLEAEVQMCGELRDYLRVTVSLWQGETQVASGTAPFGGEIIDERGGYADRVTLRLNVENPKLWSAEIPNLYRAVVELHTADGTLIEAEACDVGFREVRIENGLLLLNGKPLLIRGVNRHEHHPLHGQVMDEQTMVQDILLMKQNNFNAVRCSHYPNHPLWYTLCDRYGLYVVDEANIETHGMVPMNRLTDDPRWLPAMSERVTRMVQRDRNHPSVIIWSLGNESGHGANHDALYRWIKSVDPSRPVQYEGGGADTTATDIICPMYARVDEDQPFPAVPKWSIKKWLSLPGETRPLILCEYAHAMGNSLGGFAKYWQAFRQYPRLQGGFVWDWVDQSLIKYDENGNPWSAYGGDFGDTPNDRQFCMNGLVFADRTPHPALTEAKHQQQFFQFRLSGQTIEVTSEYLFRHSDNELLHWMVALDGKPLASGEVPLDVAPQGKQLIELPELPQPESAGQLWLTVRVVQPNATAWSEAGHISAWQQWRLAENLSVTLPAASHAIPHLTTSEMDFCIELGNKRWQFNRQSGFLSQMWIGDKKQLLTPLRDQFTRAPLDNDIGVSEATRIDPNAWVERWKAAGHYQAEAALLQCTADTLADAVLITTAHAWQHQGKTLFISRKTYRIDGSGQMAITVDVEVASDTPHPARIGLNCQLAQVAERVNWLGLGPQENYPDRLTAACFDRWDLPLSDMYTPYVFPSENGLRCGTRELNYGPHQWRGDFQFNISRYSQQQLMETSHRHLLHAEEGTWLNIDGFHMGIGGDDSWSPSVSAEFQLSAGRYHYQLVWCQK
T4 sequence (P11940 whole entry, the tested form may be a part): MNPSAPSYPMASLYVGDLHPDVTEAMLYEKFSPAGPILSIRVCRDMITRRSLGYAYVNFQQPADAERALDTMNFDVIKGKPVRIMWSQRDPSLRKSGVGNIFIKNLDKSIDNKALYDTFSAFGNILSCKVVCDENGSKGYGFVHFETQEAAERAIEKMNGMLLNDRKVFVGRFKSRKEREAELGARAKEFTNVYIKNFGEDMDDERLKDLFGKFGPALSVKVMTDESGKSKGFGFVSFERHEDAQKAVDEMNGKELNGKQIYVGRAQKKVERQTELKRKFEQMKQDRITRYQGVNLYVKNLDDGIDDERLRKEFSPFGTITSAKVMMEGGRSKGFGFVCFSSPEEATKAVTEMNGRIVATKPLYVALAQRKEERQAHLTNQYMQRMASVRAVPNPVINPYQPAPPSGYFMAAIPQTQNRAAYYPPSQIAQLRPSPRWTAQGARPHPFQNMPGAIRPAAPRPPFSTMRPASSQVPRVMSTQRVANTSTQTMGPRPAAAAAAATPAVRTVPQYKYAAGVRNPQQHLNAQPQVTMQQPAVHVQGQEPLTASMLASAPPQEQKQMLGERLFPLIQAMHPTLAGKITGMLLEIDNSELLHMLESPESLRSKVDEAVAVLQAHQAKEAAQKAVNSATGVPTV
Chain of Melanocortin receptor 4 (P32245 whole entry): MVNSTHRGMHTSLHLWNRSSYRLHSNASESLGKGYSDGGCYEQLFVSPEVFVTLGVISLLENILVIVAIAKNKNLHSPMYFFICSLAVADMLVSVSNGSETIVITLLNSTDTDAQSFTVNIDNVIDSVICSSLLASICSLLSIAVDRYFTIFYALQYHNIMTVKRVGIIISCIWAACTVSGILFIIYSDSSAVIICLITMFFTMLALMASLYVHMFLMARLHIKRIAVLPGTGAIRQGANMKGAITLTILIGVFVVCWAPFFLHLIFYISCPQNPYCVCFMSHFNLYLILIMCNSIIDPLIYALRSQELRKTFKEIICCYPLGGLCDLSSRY

With Cc1nc2ccccc2c2oc(C(=O)N3CCN(C4CCCCC4)CC3)cc12 the AC50 [1] was 7.02 µM (active), the AC50 [2] was 68.8 µM (active) and the AC50 [3] was 3.44 µM (active). The IC50 (Beta-galactosidase [4]) was > 80 µM (inactive).

For CCOc1ccc(OCc2cccc(C(=O)N3CCOCC3)c2)cc1, the AC50 [5] was 2.64 µM (active), the AC50 [6] was 22 µM (active) and the AC50 [7] was 5.29 µM (active). For the same molecule, the AC50 [8] was 7.58 µM (active).

With COc1ccccc1C1(CCNC(C)c2cccs2)CCOC(C(C)C)C1 (configuration not stated) the IC50 (Melanocortin receptor 4) was 10.1 µM (inactive) and the IC50 [9] was > 64.5 µM (inactive).

In the case of C[C@@H]1CNC(=O)c2c(C(=O)N3CCN(c4ccccc4)CC3)ncn21, the AC50 [5] is reported as 7.81 µM (active), the AC50 [6] is reported as 14.8 µM (active) and the AC50 [7] is reported as 10.4 µM (active). For the same molecule, the AC50 [8] was 19.7 µM (active).

For O=S(=O)(c1ccc(F)cc1)N1CCN(c2nc(-c3cccnc3)nc3ccccc23)CC1, the IC50 (Melanocortin receptor 4) was > 64.6 µM (inactive) and the IC50 [9] was > 64.6 µM (inactive).

In the case of CCOC(=O)C(C(=O)NCc1cccc(OC)c1)c1ncc(C(F)(F)F)cc1Cl (configuration not stated), the IC50 (Coagulation factor XII) is reported as > 50 µM (inactive).

For Cc1cc(OCC(=O)N(C)Cc2ccccc2)ccc1Br, the IC50 (Beta-galactosidase [4]) was > 80 µM (inactive).

For COc1cc(C(=O)N2CCN(c3ncnc4sc(C)c(C)c34)CC2)cc(OC)c1OC, the AC50 [5] was 33.7 µM (active), the AC50 [6] was 6.73 µM (active) and the AC50 [7] was 24.4 µM (active). For the same molecule, the AC50 [8] was 8.4 µM (active).

With O=C1C2CCCN2C(c2ccccc2)N1c1ccc(Cl)cc1 (configuration not stated) the IC50 (Vero [10]) was > 25 µM (active).

For O=C(NNc1ccc(Cl)cc1)c1sccc1Cl, the EC50 [11] was 3.77 µM (active), the EC50 (Beta-galactosidase [12]) was > 40 µM (inactive) and the EC50 [13] was 2.04 µM (active). For the same molecule, the IC50 [14] was 12.4 µM (active), the IC50 [15] was > 66 µM (inactive) and the IC50 [16] was > 66 µM (inactive).

For CCOC(=O)c1c(SCCN2CCCCC2)n(-c2ccccc2)c(=S)n(-c2ccccc2)c1=O, the IC50 (Vero [10]) was 20.1 µM (active) and the CC50 (Vero [17]) was > 25 µM (active).

In the case of COc1ccc(-n2cc(-c3ccc(Br)cc3)nc2S)cc1, the IC50 (Beta-galactosidase [4]) is reported as > 80 µM (inactive).
